# Patent US9108957B2 (MITSUBISHI TANABE PHARMA CORPORATION, priority 2009, dated 2015)
# Molecular target: human recombinant TPK1 (Homo sapiens, UniProt P49841)
# Test: Inhibitory activity against P-GS1 phosphorylation by TPK1 (Kinase Glo luminescence)
# Assay type: biochemical
# Conditions: 7.5 μM P-GS1, 10 μM ATP, 25° C. for 16 hours, Kinase Glo Reagent luminescent signal
# Experimental: Inhibitory Activity of the Medicament of the Present Invention Against P-GS1 Phosphorylation by Bovine Cerebral TPK1
# A mixture containing 100 mM HEPES-sodium hydroxide (pH 7.2), 1 mM magnesium acetate, 1 mM EGTA, 1 mM dithiothreitol (DTT), 0.02% Tween 20, 7.5 μM P-GS1, 10 μM ATP, human recombinant TPK1 and a compound shown in Table (a final mixture contained 1% DMSO deriving from a solution of a test compound prepared in the presence of 10% DMSO) was used as a reaction system. The phosphorylation was started by adding ATP, and the reaction was conducted at 25° C. for 16 hours. Then equal volume of Kinase Glo Reagent (Promega) was added to the mixture and luminescent signal from the mixture was measured. IC50 for each compound was calculated by setting the data of mixture without enzyme as 0% activity and that without compound as 100% activity.
# Sequence of human recombinant TPK1 (P49841 whole entry): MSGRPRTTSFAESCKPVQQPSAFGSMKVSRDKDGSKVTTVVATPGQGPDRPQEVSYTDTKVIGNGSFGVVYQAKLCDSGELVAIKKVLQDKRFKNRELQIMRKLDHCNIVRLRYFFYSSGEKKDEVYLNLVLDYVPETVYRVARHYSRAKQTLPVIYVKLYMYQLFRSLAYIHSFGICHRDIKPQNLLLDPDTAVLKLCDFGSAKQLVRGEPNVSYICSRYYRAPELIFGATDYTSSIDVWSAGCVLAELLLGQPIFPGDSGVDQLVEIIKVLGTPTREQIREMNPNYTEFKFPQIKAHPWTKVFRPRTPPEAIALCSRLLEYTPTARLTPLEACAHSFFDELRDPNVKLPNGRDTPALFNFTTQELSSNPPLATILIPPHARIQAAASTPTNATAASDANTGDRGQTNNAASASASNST
row,SMILES,IC50 [nM]
1,"Cn1c(N2CCOC(c3ccccc3F)CC2)nc(-c2ccncc2)cc1=O (centres unmarked) [Compound A110, 2-(7-(2-fluorophenyl)-1,4-oxazepan-4-yl)-3-methyl-6-(pyridin-4-yl)pyrimidin-4(3H)-one]",29.2
2,"COc1ccc(C2CCN(c3nc(-c4ccncn4)cc(=O)n3C)CCO2)cc1 (centres unmarked) [Compound A117, 2-(7-(4-methoxyphenyl)-1,4-oxazepan-4-yl)-3-methyl-6-(pyrimidin-4-yl)pyrimidin-4(3H)-one]",54.7
3,"CCC1CCOCCN1c1nc(-c2ccncc2F)cc(=O)n1C (centres unmarked) [Compound A072, 6-(3-fluoropyridin-4-yl)-3-methyl-2-(5-ethyl-1,4-oxazepan-4-yl)pyrimidin-4(3H)-one]",65
4,"Cn1c(N2CCCOCC2)nc(-c2ccncc2F)cc1=O [Compound A001, 6-(3-fluoropyridin-4-yl)-3-methyl-2-(1,4-oxazepan-4-yl)pyrimidin-4(3H)-one]",27.4
5,"Cn1c(N2CCOC(c3ccc(-c4ncon4)cc3)CC2)nc(-c2ccncn2)cc1=O (single isomer, unassigned; (-)) [Compound A111, (−)-2-[7-[4-(1,2,4-oxadiazol-3-yl)-phenyl]-1,4-oxazepan-4-yl]-3-methyl-6-(pyrimidin-4-yl)pyrimidin-4(3H)-one]",29.5
6,"Cn1c(N2CCOC(c3ccc(Br)cc3)CC2)nc(-c2ccncc2F)cc1=O (single isomer, unassigned; (-)) [Compound A120, (−)-2-(7-(4-bromophenyl)-1,4-oxazepan-4-yl)-6-(3-fluoropyridin-4-yl)-3-methylpyrimidin-4(3H)-one]",82.8
7,"Cn1c(N2CCCO[C@H](c3ccc(C#N)cc3)C2)nc(-c2ccncc2F)cc1=O [Compound A063, (R)-2-[2-(4-cyanophenyl)-1,4-oxazepan-4-yl]-6-(3-fluoropyridin-4-yl)-3-methylpyrimidin-4(3H)-one]",826
8,"Cn1c(N2CCCO[C@H](c3ccc(F)cc3)C2)nc(-c2ccncc2)cc1=O [Compound A057, (R)-2-(2-(4-fluorophenyl)-1,4-oxazepan-4-yl)-3-methyl-6-(pyridin-4-yl)pyrimidin-4(3H)-one]",207
9,"Cn1c(N2CCOC(c3cccc(F)c3)CC2)nc(-c2ccncn2)cc1=O (centres unmarked) [Compound A106, 2-[7-(3-fluorophenyl)-1,4-oxazepan-4-yl]-3-methyl-6-(pyrimidin-4-yl)pyrimidin-4(3H)-one]",20.5
10,"Cn1c(N2CCCO[C@H](c3ccc(C(N)=O)cc3)C2)nc(-c2ccncn2)cc1=O [Compound A060, (R)-2-[2-(4-aminocarbonylphenyl)-1,4-oxazepan-4-yl]-3-methyl-6-(pyrimidin-4-yl)pyrimidin-4(3H)-one]",252
11,"Cc1nc(-c2cccc([C@H]3CN(c4nc(-c5ccncn5)cc(=O)n4C)CCCO3)c2)no1 [Compound A030, (S)-2-[2-[3-(5-methyl-1,2,4-oxadiazol-3-yl)-phenyl]-1,4-oxazepan-4-yl]-3-methyl-6-(pyrimidin-4-yl)pyrimidin-4(3H)-one]",19.8
12,"Cn1c(N2CCOC(c3ccc(Br)cc3)CC2)nc(-c2ccncc2)cc1=O (single isomer, unassigned; (+)) [Compound A119, (+)-2-[7-(4-bromophenyl)-1,4-oxazepan-4-yl]-3-methyl-6-(pyridin-4-yl)pyrimidin-4(3H)-one]",72.2
13,"Cn1c(N2CCOC(c3ccc(Br)cc3)CC2)nc(-c2ccncc2F)cc1=O (single isomer, unassigned; (+)) [Compound A114, (+)-2-(7-(4-bromophenyl)-1,4-oxazepan-4-yl)-6-(3-fluoropyridin-4-yl)-3-methylpyrimidin-4(3H)-one]",34.7
14,"Cc1noc(-c2cccc([C@H]3CN(c4nc(-c5ccncn5)cc(=O)n4C)CCCO3)c2)n1 [Compound A045, (S)-2-[2-[3-(3-methyl-1,2,4-oxadiazol-5-yl)phenyl]-1,4-oxazepan-4-yl]-3-methyl-6-(pyrimidin-4-yl)pyrimidin-4(3H)-one]",57.1
15,"Cn1c(N2CCCO[C@H](c3ccc(Br)cc3)C2)nc(-c2ccncc2F)cc1=O [Compound A044, (R)-2-[2-(4-bromophenyl)-1,4-oxazepan-4-yl]-6-(3-fluoropyridin-4-yl)-3-methylpyrimidin-4(3H)-one]",52.4

# These reach a lower IC50. Values come first.
row,IC50 [nM],SMILES
1,15,"CC1COCCN(c2nc(-c3ccncc3F)cc(=O)n2C)C1 (centres unmarked) [Compound A084, 2-(6-methyl-1,4-oxazepan-4-yl)-6-(3-fluoropyridin-4-yl)-3-methylpyrimidin-4(3H)-one]"
2,16.3,"Cc1noc(-c2ccc(C3CCN(c4nc(-c5ccncn5)cc(=O)n4C)CCO3)cc2)n1 (single isomer, unassigned; (+)) [Compound A103, (+)-2-[7-[4-(3-methyl-1,2,4-oxadiazol-5-yl)-phenyl]-1,4-oxazepan-4-yl]-3-methyl-6-(pyrimidin-4-yl)pyrimidin-4(3H)-one]"
3,11.4,Cn1c(N2CCCO[C@@H](c3cccc(C#N)c3)C2)nc(-c2ccncc2F)cc1=O [Compound A020]
4,13,"Cn1c(N2CCCO[C@@H](c3cccc(Br)c3)C2)nc(-c2ccncc2)cc1=O [Compound A024, (S)-2-[2-(3-bromophenyl)-1,4-oxazepan-4-yl]-3-methyl-6-(pyridin-4-yl)pyrimidin-4(3H)-one]"
5,11.1,"Cc1noc(-c2ccc([C@H]3CN(c4nc(-c5ccncc5F)cc(=O)n4C)CCCO3)cc2)n1 [Compound A019, (S)-2-[2-[4-(3-methyl-1,2,4-oxadiazol-5-yl)-phenyl]-1,4-oxazepan-4-yl]-6-(3-fluoropyridin-4-yl)-3-methylpyrimidin-4(3H)-one]"
6,13.2,"Cn1c(N2CCOCC(c3ccc(-c4ncon4)cc3)C2)nc(-c2ccncn2)cc1=O (centres unmarked) [Compound A082, 2-[6-[4-(1,2,4-oxadiazol-3-yl)-phenyl]-1,4-oxazepan-4-yl]-3-methyl-6-(pyrimidin-4-yl)-pyrimidin-4(3H)-one]"
7,13.7,"Cn1c(N2CCCO[C@H](c3cccc(Br)c3)C2)nc(-c2ccncc2F)cc1=O [Compound A025, (R)-2-[2-(3-bromophenyl)-1,4-oxazepan-4-yl]-6-(3-fluoropyridin-4-yl)-3-methylpyrimidin-4(3H)-one]"
8,14.7,"Cn1c(N2CCOC(c3ccc(-c4ncon4)cc3)CC2)nc(-c2ccncn2)cc1=O (single isomer, unassigned; (+)) [Compound A099, (+)-2-[7-[4-(1,2,4-oxadiazol-3-yl)-phenyl]-1,4-oxazepan-4-yl]-3-methyl-6-(pyrimidin-4-yl)pyrimidin-4(3H)-one]"
9,14,"Cc1nc(-c2ccc(C3COCCN(c4nc(-c5ccncc5F)cc(=O)n4C)C3)cc2)no1 (centres unmarked) [Compound A083, 2-[6-[4-(5-methyl-1,2,4-oxadiazol-3-yl)-phenyl]-1,4-oxazepan-4-yl]-6-(3 fluoropyridin-4-yl)-3-methylpyrimidin-4(3H)-one]"
10,6.8,"Cc1nc(-c2ccc(C3CCN(c4nc(-c5ccncc5F)cc(=O)n4C)CCO3)cc2)no1 (single isomer, unassigned; (+)) [Compound A091, (+)-2-[7-[4-(5-methyl-1,2,4-oxadiazol-3-yl)-phenyl]-1,4-oxazepan-4-yl]-6-(3-fluoropyridin-4-yl)-3-methylpyrimidin-4(3H)-one]"
11,10.8,"Cn1c(N2CCOC(c3ccc(Br)cc3)CC2)nc(-c2ccncn2)cc1=O (single isomer, unassigned; (+)) [Compound A096, (+)-2-[7-(4-bromophenyl)-1,4-oxazepan-4-yl]-3-methyl-6-(pyrimidin-4-yl)pyrimidin-4(3H)-one]"
